Data from paper PMC12040169 (PLOS Biology, 2025).

Experiment: in vitro
Details: human, hela cells, % viability

SMILES	viability at 28.5 h, 10 µM	viability at 28.5 h, 10 µM (bulk resorufin, single well)
c1cnc(NCc2cc3n(n2)CCN(CC2CCCCC2)C3)cn1 [CBK307592]	80%	–
COC[C@@H]1OC[C@@]2(C)C3CC[C@@H](O)[C@@H](CC(=O)NCc4ccccc4)[C@]3(C)CC[C@H]2O1 (stereo partly drawn) [CBK289574]	79.1%	–
Cc1cc(C)n(-c2nc3cc(Cl)ccc3nc2Nc2ccc3c(c2)OCO3)n1 [CBK268380]	91.9%	–
Cc1nnc2n1CCN(CC1CCCCO1)C2 (stereo not drawn) [CBK304267]	105%	–
CNc1c(C)cc([N+](C)(C)C)cc1C [CBK261007I]	95.3%	–
O=C1NC(=O)N(c2ccc3c(c2)OCO3)C(=O)/C1=C/c1ccc(OCc2cccc(C(=O)O)c2)cc1 [CBK263805]	–	106%
COc1ccc(OCc2nnn[nH]2)cc1 [CBK270000]	89.9%	–
Nc1ccccc1Sc1ncccc1C(F)(F)F [CBK093758]	86.2%	–
O=C1NC(=O)N(Cc2ccccc2)C(=O)/C1=C\NC(CO)(CO)CO [CBK264431]	–	104%
CCCN1CCN(c2ncnc3sc(C4COc5ccccc5O4)cc23)CC1 (stereo not drawn) [CBK269396]	98.1%	–
COc1ccc(C(=O)Nc2nnc(-c3ccccc3OC)o2)cc1OC [CBK287589]	86.3%	–
N#C/C(=C\c1cn(CCC(N)=O)c2ccccc12)Sc1nc2ccccc2s1 [CBK267897]	103%	–
O=C(CCCc1nc(-c2ccc(Cl)cc2)no1)NCc1cccnc1 [CBK269415]	90.4%	–
O=C1CCC(=O)N1CCOc1nccnc1OC1CCN(Cc2ccccc2F)CC1 [CBK084337]	96.4%	–
CCn1cc(Cl)c(C(=O)NC2CCN(c3nc(C)cc(=O)[nH]3)CC2)n1 [CBK304614]	88.5%	–
O=C(O)CCN1CCCC2(CCN(C(=O)Cc3c[nH]c4ccccc34)C2)C1 (stereo not drawn) [CBK137138]	114%	–
N#Cc1c(NC(=O)CN2CCc3ccccc3C2)sc2c1CCCC2 [CBK269126]	105%	–
CCCCCOc1ccc(Nc2ccc(-c3cccnc3)cn2)cc1 [CBK036948]	109%	–
COc1ccccc1N1CCN(C(=O)Nc2ccc(Cl)cc2)CC1 [CBK155597]	94.5%	–
NCC(=O)Nc1ccc(Br)cc1C(=O)c1ccccc1Cl [CBK264692B]	90.5%	–
CS(=O)(=O)N(CCc1ccccc1)CC(=O)O [CBK281244]	109%	–
C[C@@H]1c2c(C(=O)OC(C)(C)C)ncn2-c2ccc(F)cc2N1CC(=O)N1CCCC1 [CBK016704]	85.3%	–

SMILES	viability at 28.5 h, 10 µM	viability at 28.5 h, 10 µM (bulk resorufin, single well)
Fc1ccc(CN(Cc2ccco2)C2CCN(c3ccc4c(c3)OCO4)CC2)cc1 [CBK286197]	88.7%	–
CC(C)CN1C(=S)N(Cc2ccc(-c3ccccn3)cc2)[C@H]2[C@H]3OC(=O)[C@H](C[C@H]3O)[C@H]21 [CBK288938]	113%	–
O=C(C1=C(O)C(=O)N(CCCN2CCOCC2)C1c1ccccn1)c1ccccc1 (stereo not drawn) [CBK266604]	93.4%	–
COCCNC(=O)c1cc(C2CN(CCc3ccccc3)CCO2)nc2ccccc12 (stereo not drawn) [CBK285622]	99.4%	–
CN(C)c1ccc(-c2cc(NCCc3ccncc3)ncn2)cc1 [CBK090849]	94.2%	–
Cn1cnnc1CCC(=O)NCC1CCN(c2ccccc2F)C1 (stereo not drawn) [CBK307587]	76.5%	–
Cc1c(C(=O)N(C)Cc2cc3ccccc3o2)nnn1C1CCNCC1 [CBK304307C]	96.4%	–
O=C(CSc1nnc2[nH]c(=O)ccn12)NCc1ccccc1Cl [CBK287684]	95.1%	–
Cc1oc2c(c1C(=O)NCCSc1nncn1C)C(=O)CCC2 [CBK306589]	92.5%	–
COc1ccc(-c2cc(C(=O)OCC(=O)c3cccc4ccccc34)c3ccccc3n2)cc1 [CBK265513]	96.7%	–
N#CCCCN1CCC2(CC1)OCCc1c2[nH]c2ccc(Br)cc12 [CBK040105]	88.4%	–
O=C(Nc1ccc([C@@H](O)[C@H]2COCC(=O)N2Cc2ccccn2)cc1)c1cccs1 [CBK289700]	109%	–
COc1ccc(-c2cc(=O)[nH]c(=S)s2)cc1 [CBK288355]	90.5%	–
CC(NC(=O)CCn1cncn1)c1cccs1 (stereo not drawn) [CBK282199]	103%	–
COCCn1c(SC(C)C(=O)NC2CC2)nc2ccc(Br)cc2c1=O (stereo not drawn) [CBK305481]	108%	–
Cc1nc2c(C(=O)NCCCN3CCCC3=O)cnn2c(C)c1Cc1cccnc1 [CBK162151]	108%	–
CN(C)C(=O)C1(Cc2ccccc2-c2ccccc2)CCN(C(=O)c2cccc(F)c2)CC1 [CBK285675]	111%	–
CCOc1ccc(NC(=O)C(C)O)c(NS(=O)(=O)c2ccc3ccccc3c2)c1 (stereo not drawn) [CBK268309]	87.6%	–
O=[N+]([O-])c1ccc(O)c(/C=N/c2ccc(Oc3ccc(/N=C/c4cc([N+](=O)[O-])ccc4O)cc3)cc2)c1 [CBK261093]	96.7%	–
Cc1noc(C)c1C(=O)N1CCCC(c2nc(C)n3ccsc23)C1 (stereo not drawn) [CBK285211]	103%	–
O=C(O)c1ccc(Br)c(S(=O)(=O)Nc2ccc(Cl)cc2)c1 [CBK263247]	98%	–
COc1ccc(CN2CCCn3c4c(c5cc(C)ccc53)CCCC42)cc1OCc1ccccc1 (stereo not drawn) [CBK262879]	96.4%	–

SMILES	viability at 28.5 h, 10 µM	viability at 28.5 h, 10 µM (bulk resorufin, single well)
NCCn1cc(C(=O)N2Cc3cnn(Cc4ccc(F)cc4)c3C2)nn1 [CBK307461]	107%	–
Nc1ccccc1-c1ccccc1NC(=O)C(=O)O [CBK266824]	110%	–
Cc1ccc(NC(=O)N(Cc2ccccc2Br)CC(C)(C)CN)cc1[N+](=O)[O-] [CBK002436C]	111%	–
O=c1[nH]c2ncc(-c3cccc4ccccc34)nc2n1Cc1cccnc1 [CBK064274]	102%	–
CCCn1ncc(C(=O)N2CCc3c([nH]c4ccccc34)C2C)c1C (stereo not drawn) [CBK281546]	98.3%	–
COc1ccc2[nH]cc(CCNC(=O)c3cc(C)[nH]n3)c2c1 [CBK116206]	89.8%	–
CS(=O)(=O)c1ccc(-n2nnnc2CN2CCC3(CCC3)C2)cc1 [CBK306262]	79.6%	–
CC(=O)Nc1ccc(S(=O)(=O)NC2(C(F)(F)F)C(=O)Nc3c2c(=O)[nH]c(=S)n3Cc2ccco2)cc1 (stereo not drawn) [CBK268395]	96.8%	–
Cc1nc2c(OCc3ccc(F)c(F)c3)cccn2c1N(C)C(=O)CCC1CCCC1 [CBK147202]	99.3%	–
COc1cccc(C(=O)NCCC(=O)N2CCc3ccccc3C2)c1 [CBK307575]	84.3%	–
O=C(C1COc2ccccc2O1)N1CCN(c2ncccn2)CC1 (stereo not drawn) [CBK144502]	116%	–
CCOC(=O)c1cnc2c(C(F)(F)F)cccc2c1NCCCN1CCOCC1 [CBK266012]	92.4%	–
COc1ccc(/C(N)=N/OC(=O)Cc2ccc(Cl)cc2)cc1OC [CBK263272]	93.2%	–
CC(NC(=O)c1cc(-c2ccccc2)nc2ccccc12)c1cccc(S(N)(=O)=O)c1 (stereo not drawn) [CBK298285]	79.5%	–
Cc1ccc(Cl)cc1-n1cc(-c2ccc(F)cc2)nn1 [CBK113128]	98.9%	–
CN(CCO)C(=O)c1cn2cc(-c3cccs3)n(CC3CC3)c(=O)c2n1 [CBK307370]	92.8%	–
Oc1cccc(OCCOc2nccc(C(F)(F)F)n2)c1 [CBK115903]	92.7%	–
Cc1ccc(-c2nnc(CN3C(=O)C4(CC(=O)N(Cc5ccccc5)C4=O)c4ccccc43)o2)cc1 (stereo not drawn) [CBK075749]	103%	–
COc1ccc2nc(O)c(CN(c3ccccc3)S(=O)(=O)c3ccccc3)cc2c1 [CBK268093]	97.7%	–
CCn1cc(S(=O)(=O)NCc2ccc3[nH]c4c(c3c2)CCCC4)cn1 [CBK307225]	100%	–
Cc1ccc(NC(=O)CCCn2cc([N+](=O)[O-])cn2)cc1Cl [CBK268485]	76.6%	–
Cc1noc(C)c1CN(C)C(C)C(=O)Nc1nccs1 (stereo not drawn) [CBK304826]	105%	–

SMILES	viability at 28.5 h, 10 µM	viability at 28.5 h, 10 µM (bulk resorufin, single well)
O=C(NCCN1CCOCC1)c1cc(-c2ccc(Cl)cc2Cl)nc2ccccc12 [CBK265379]	113%	–
c1ccc(N2CCN(c3cccc(-c4ccco4)n3)CC2)nc1 [CBK037662]	107%	–
CCN(Cc1ccncc1)C(CC1CCCCC1)c1ccccc1 (stereo not drawn) [CBK061639T]	97.3%	–
CC(=O)N1CCc2c(c3cccc(Br)c3n2Cc2ccccc2)C1 [CBK024402]	93.9%	–
O=C(c1ccc(Cl)cc1)N1CCN(C(=O)c2cc(O)nc3ccccc23)CC1 [CBK296666]	103%	–
CS(=O)(=O)Nc1cccc2cc[nH]c12 [CBK159509]	110%	–
COc1cc(NC(=O)c2ccco2)c(C(=O)O)cc1OC [CBK076926]	91.6%	–
O=C(Nc1cccc2ccccc12)C1CCC(C(=O)Nc2cccc3ccccc23)CC1 (stereo not drawn) [CBK268706]	81.9%	–
CCN(CC)C(=O)CNS(=O)(=O)c1cc(Br)c(Cl)s1 [CBK034500]	112%	–
O=C1NC(=O)C(CCc2ccccn2)(CCc2ccccn2)C(=O)N1c1cccc(C(F)(F)F)c1 [CBK269021]	–	99.8%
N#Cc1ccsc1NS(=O)(=O)c1ccc(Cl)c(Cl)c1 [CBK034735]	95%	–
CN1CCN(C(=O)C[C@@H]2CCNC[C@@H]2Cc2cc(CC3CCCCC3)on2)CC1 [CBK289151]	84.3%	–
COc1cc(NS(=O)(=O)c2ccc(N/C=C3/CCc4ccccc4C3=O)cc2)nc(OC)n1 [CBK263376]	82.4%	–
O=C(Nc1nc2ccccc2[nH]1)NC1CCCCC1 [CBK288210]	86.1%	–
COc1ccccc1-c1nnc(SCc2ccc(C(=O)O)cc2)[nH]1 [CBK266631]	99.5%	–
COc1ccc(-c2nnc(NC(=O)C3CCCCC3)o2)cc1 [CBK287592]	83.3%	–
O=C(O)CCC(=O)N1CCC(c2nnc3ccccn23)CC1 [CBK287920]	104%	–
O=C1c2ccccc2C(=O)N1CCCc1nc2c3c4c(sc3ncn2n1)CCCCC4 [CBK268540]	93.4%	–
Nc1ncnc2c1nc(OCc1ccccc1)n2C1CC(O)C(CO)O1 (stereo not drawn) [CBK201164]	94.9%	–
c1ccc(-n2nnnc2CSc2nc3ccccc3s2)cc1 [CBK266372]	102%	–
Cc1cc(-c2ccccc2)nn1C(CC(=O)O)C(=O)O (stereo not drawn) [CBK263480]	91.6%	–
